What was measured:
Assay type in all cases: in vivo, rat
ICH rats = test: Short-term neurological function of ICH rats (Garcia score, beam balance test); details: ICH model, 24 hours after modeling; group O, α-asarone emulsion oral administration 40 mg/kg
SAH rats [1] = test: Short-term neurological function of SAH rats (Garcia score, beam balance test, bleeding score); details: SAH model; for Beam balance score / Garcia score: 24 hours after modeling
Protocol: Experimental grouping: At 2 h after endovascular perforation or collagenase VII injection, Zea Longa score was used to evaluate the neurological function of rats. Successful model rats were randomly divided into groups for administration.
All groups were administrated through the tail vein injection except for group N administrated intraperitoneally.
The rats were fasted for 12 hours before operation, and were anesthetized with 4% isoflurane, and kept anesthetized with 2% isoflurane. The animals were fixed in the supine position with the body temperature maintained at about 37° C. A traditional skin incision of the neck was performed along the midline. The muscle and fascia were separated along the medial margin of the sternocleidomastoid muscle to expose the right side, then the common carotid artery (CCA), external carotid artery (ECA) and internal carotid artery (ICA) were bluntly separated with disposal lines placed at CCA proximal end, ICA and ECA for use. The CCA proximal end and the ECA were ligated, and the ICA was temporarily clamped with an arterial clip, and then a small hole was poked with a needle at about 4 mm from the bifurcation at the CCA. A nylon suture was introduced into the CCA from the hole and advanced through the ICA after releasing the arterial clip, and the suture was inserted intracranially. […] The suture moved forward for roughly 2 mm to perforate the artery followed by instant withdraw, and then the suture was completely removed and the ICA was ligated. Finally, the incision was cleaned with normal saline and sutured. The sham group conducted the same procedure as the model group except for the perforation. After awakening from anesthesia, the animals were raised normally.
The SAH severity was grading after rat's euthanasia, i.e., completing the evaluation of short-term neurological function. The score was determined by the amount of subarachnoid hemorrhage on the surface of basal cistern and brain tissue which was divided into six parts by the Willis ring composed of basilar artery, anterior cerebral artery, internal carotid artery, posterior cerebral artery and posterior communicating artery. Each part was graded from 0 to 3 points according to the amount of subarachnoid blood clots, i.e., 0 points: no subarachnoid blood; 1 point: a small amount of subarachnoid blood; 2 points: moderate amount of blood clots with recognizable arteries; 3 points: blood clots cover all arteries in the area. All 6 part scores were added up for a total of 18 points. According to the final score, SAH hemorrhage severity could be divided into mild subarachnoid hemorrhage (0 to 7 points), moderate subarachnoid hemorrhage (8 to 12 points), and severe subarachnoid hemorrhage (13 to 18 points). The moderate to severe SAH models were selected for statistical analysis (score≥8 points).
According to Zea Longa's neurological function score, the rats were scored 2 hours after the operation when they were awake from anesthesia. Successful model rats with a score of 1 to 3 points were enrolled in the group: • 0 points: no neurological deficits with normal activity; • 1 point: inability to fully extend the contralateral forepaw; • 2 points: the animal appears to turn in circles when crawling; • 3 points: the animal tends to lean to the hemiplegic side; • 4 points: the animal cannot walk spontaneously or loses consciousness. 1.4 Assessment of Short-Term Neurological Function
The neurological function of rats was comprehensively evaluated with Garcia score and beam balance test 24 hours after modeling. The criteria of Garcia score are shown in Table 1, which evaluates the movement, sensation, climbing and limb symmetry of the rats with the score range of 3 to 18 points. The lower the score, the more severe the neurological injury. The criteria of the beam balance test are shown in Table 2, which evaluated the proprioception and body coordination of rats with the score range of 0 to 6 points. […]

SAH rats [2] = test: Secondary epilepsy in SAH rats (Racine score, seizures); details: within 24 hours after SAH
Protocol: The experimental materials, grouping, modeling method and administration protocol were the same as those in the effect embodiment 1, and the seizures of rats in each group were observed within 24 hours after SAH.

SAH rats [3] = test: Glutamate and GABA content in brain tissue, SAH rats; details: 12 to 24 hours after operation, group M
Protocol: The rats were deeply anesthetized, and decapitated to collect the brain at 12-24 hours after modeling. Then about 60 to 120 mg of brain cortex on the hemorrhagic side were weighed, homogenized with 10 times the volume of ice-cold centrifuge buffer for biochemical detection, homogenized for 10 min in an ice bath, and centrifuged at 4° C. for 30 minutes (14,000 rpm/min). The contents of glutamate and GABA in the supernatant were detected according to the instructions of glutamate content detection kit and rat GABA Elisa kit.

SAH rats [4] = test: Brain water content and blood-brain barrier permeability (Evans blue), SAH rats; details: 24 hours after operation, group M, medium-dose intravenous, vs model group
Protocol: After completing the evaluation of 24-hour short-term neurological function, 4% Evans blue solution (2.5 mL/kg) was injected into the right caudal vein of the rats. After circulated for 1 hour, the rats were deeply anesthetized and transcardinally perfused with 100 mL of normal saline to collect the rats' brain. The whole brain was divided into four groups: left hemisphere (LH), right hemisphere (RH), cerebellum (Cb) and brainstem (BS). The left and right hemispheres were coronally divided into two parts, one part was immediately weighed (wet weight) with a balance with an accuracy of 0.1 mg, dried in an oven at 105° C. for 24 hours and weighed again (dry weight). The brain water content was calculated as [(wet weight−dry weight)/wet weight]×100%. The other part of the brain tissue was weighed (wet weight) and emerged into 10 times the volume of pure formamide, incubated at 60° C. for 48 hours, centrifuged at 25° C. for 30 min (10,000 rpm/min). The Evans blue in the supernatant was measured at 622 nm by a UV spectrophotometry, and calculated with a standard curve for quantification. The amount of Evans blue was expressed as μg/g of brain tissue (wet weight).

[5] = group H, α-asarone emulsion injection 30 mg/kg tail vein
[6] = group L, α-asarone emulsion injection 7.5 mg/kg tail vein
[7] = group M, α-asarone emulsion injection 15 mg/kg tail vein
[8] = group O, α-asarone emulsion oral administration 40 mg/kg

SMILES: C/C=C/c1cc(OC)c(OC)cc1OC [α-asarone, trans-2,4,5-trimethoxy-1-propenylbenzene]
- Beam balance score (ICH rats): 3.41
- Garcia score (ICH rats): 10.17
- Beam balance score (SAH rats [1]; [5]): 3.22
- Garcia score (SAH rats [1]; [5]): 11.79
- Beam balance score (SAH rats [1]; [6]): 3.30
- Garcia score (SAH rats [1]; [6]): 10.82
- Beam balance score (SAH rats [1]; [7]): 2.70
- Garcia score (SAH rats [1]; [7]): 12.29
- curative effect compared with nimodipine (group N) and vinpocetine (group V) (SAH rats [1]; group M, 15 mg/kg): better
- incidence of secondary epilepsy (SAH rats [2]): significantly reduce
- Clonic seizures (%) (SAH rats [2]; [5]): 8.0%
- Racine score (SAH rats [2]; [5]): 0.73 ± 1.44
- Tonic seizures (%) (SAH rats [2]; [5]): 6.7%
- Clonic seizures (%) (SAH rats [2]; [6]): 6.7%
- Racine score (SAH rats [2]; [6]): 0.53 ± 1.46
- Tonic seizures (%) (SAH rats [2]; [6]): 6.7%
- Clonic seizures (%) (SAH rats [2]; [7]): 5.6%
- Racine score (SAH rats [2]; [7]): 0.44 ± 1.34
- Tonic seizures (%) (SAH rats [2]; [7]): 5.6%
- Clonic seizures (%) (SAH rats [2]; [8]): 15.4%
- Racine score (SAH rats [2]; [8]): 0.77 ± 1.59
- Tonic seizures (%) (SAH rats [2]; [8]): 7.7%
- GABA content in the hemorrhagic brain tissue (SAH rats [3]): significantly reduce
- glutamate content in the hemorrhagic brain tissue (SAH rats [3]): significantly reduce
- Evans blue content (SAH rats [4]): significantly reduce
- brain water content (SAH rats [4]): significantly reduce
